Measured values as given in patent publication US6656921B1, “Use of zinc hyaluronate against peptic ulcer” (Richter Gedeon Vegyeszeti Gyar RT., priority 1997, dated 2003).

Assays:
[1] = tested on: acetic acid induced chronic gastric ulcer; test: Inhibition of acetic acid induced chronic gastric ulcer; assay type: in vivo, rat; settings: for Ulcerated area mm^2 ± S.E.M.: day 5 to 14 after surgery
Method: Female, RG Wistar rats weighing between 120-150 g were used. Before the surgery animals were deprived of food for 24 hours but received water ad libitum. The chronic gastric ulcer was induced by the injection of 25 μl/animal of 20% (v/v) acetic acid into the gastric wall under light ether anaesthesia according to the method similar to that described by Takagi et al. (1969). The oral treatment with the test compounds was started five days after the surgery and continued in a once-a-day regimen up to the 14th day. The animals were killed on the 15th day and their stomachs were dissected. The severity of ulceration was evaluated by the measurement of the diameter of the ulcers and the area affected was calculated. The healing effect was expressed as differences in percentage between the control and test group values.

[2] = tested on: acidified ethanol induced gastric damage; test: Effect of L-NAME (endogenous NO) on protection against acidified-ethanol induced gastric damage; assay type: in vivo, rat
Method: To study the mechanism of action of the compound to be tested, the involvement of endogenous NO in the development of acidified-ethanol induced gastric damage was also studied by intraperitoneal administration of L-N^G-nitroarginine methyl ester (L-NAME). L-NAME at a dose of 25 mg/kg was injected 15 minutes before the test compound. In subsequent experiments the test compound (p.o.), L-NAME (25 mg/kg i.p.), L-arginine (400 mg/kg i.v.) were administered 30, 45 or 60 minutes before oral administration of acidified-ethanol.
The connection between the cytoprotective effect of zinc hyaluronate and endogenic NO was studied by using an inhibitor of the nitrogen(II) oxide biosynthesis namely, N^G-nitro-L-arginine methyl ester (L-NAME). Considering that zinc hyaluronate(II) and zinc hyaluronate(M) had shown the same activity in acidified ethanol test, the latter was the only one tested in this experiment.

[3] = D-Arg + L-NAME + ZH/M, 400 + 25 + 50 mg/kg
[4] = L-Arg + L-NAME + ZH/M, 400 + 25 + 50 mg/kg

zinc hyaluronate [Zinc hyaluronate (M)]
Ulcerated area mm^2 ± S.E.M. ([1]; 0.1 mg/kg p.o. once a day): 9.4 ± 2.3 mm^2
Ulcerated area mm^2 ± S.E.M. ([1]; 1.0 mg/kg p.o. once a day): 7.6 ± 1.4 mm^2
Effect on healing of acetic acid induced chronic ulcer (in words) ([1]; rat, in vivo): accelerated the healing
Inhibition (compared with the vehicle + vehicle group) [2, 3]: 48.4%
Lesion length/stomach mm ± S.E.M. [2, 3]: 31.2 ± 3.5*d mm
Inhibition (compared with the vehicle + vehicle group) [2, 4]: 60.2%
Lesion length/stomach mm ± S.E.M. [2, 4]: 24.1 ± 4.4*c mm
Effect of L-NAME pretreatment on the gastroprotective activity (in words) ([2]; L-NAME 25 mg/kg): considerably reduced
Inhibition (compared with the vehicle + vehicle group) ([2]; L-NAME + ZH/M, 25 + 50 mg/kg): 31.9%
Lesion length/stomach mm ± S.E.M. ([2]; L-NAME + ZH/M, 25 + 50 mg/kg): 41.2 ± 4.6*b mm
Inhibition (compared with the vehicle + vehicle group) ([2]; Vehicle + ZH/M, 0 + 50 mg/kg): 69.6%
Lesion length/stomach mm ± S.E.M. ([2]; Vehicle + ZH/M, 0 + 50 mg/kg): 18.4 ± 2.3 mm
